Values quoted from earlier work, collected in patent US8278066B2, “Truncated somatostatin receptors” (Board of Regents, The University of Texas System, priority 2001, dated 2012).

Biological target: SSTR2 (Homo sapiens, UniProt P30874)
Conditions: reported by Reisine et al. 1993; Raynor et al. 1993; cited from earlier work

SSTR2, sequence (P30874 whole entry, species assumed): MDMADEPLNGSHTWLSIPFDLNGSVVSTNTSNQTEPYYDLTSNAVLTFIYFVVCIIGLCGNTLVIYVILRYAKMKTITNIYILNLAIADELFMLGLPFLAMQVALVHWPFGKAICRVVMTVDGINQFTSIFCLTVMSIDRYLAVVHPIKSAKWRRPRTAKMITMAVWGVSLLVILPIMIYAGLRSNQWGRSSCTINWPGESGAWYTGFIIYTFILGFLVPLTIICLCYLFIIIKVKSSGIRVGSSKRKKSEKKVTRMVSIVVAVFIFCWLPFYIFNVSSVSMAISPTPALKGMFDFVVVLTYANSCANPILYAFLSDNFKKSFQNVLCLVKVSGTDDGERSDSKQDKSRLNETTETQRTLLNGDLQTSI

For `C[C@@H](O)[C@@H]1NC(=O)[C@H](CCCCN)NC(=O)[C@@H](Cc2c[nH]c3ccccc23)NC(=O)[C@H](Cc2ccccc2)NC(=O)[C@@H](NC(=O)[C@H](N)Cc2ccccc2)CSSC[C@@H](C(=O)N[C@H](CO)[C@@H](C)O)NC1=O` [octreotide], the Receptor saturation is given as 100 nM.
